From patent US20100029681A1, “HETEROCYCLIC COMPOUNDS AS CALCIUM CHANNEL BLOCKERS” (priority 2006, published 2010)
Read-outs that look alike come from different tables or passages of the source.

Target: T1, rat brain N-type calcium channel subunits (α1B+α2δ+β1b cDNA subunits) (Rattus norvegicus, UniProt Q02294)
T1 construct: expressed in transfected cells; host or cells: HEK 293
Experiment: N-type calcium channel block, whole cell patch clamp in transfected HEK 293 cells
Assay type: cell-based
Experimental: N-type calcium channel blocking activity was assayed in human embryonic kidney cells, HEK 293, stably transfected with the rat brain N-type calcium channel subunits (α1B+α2δ+β1b cDNA subunits). Alternatively, N-type calcium channels (α1B+α2δ+β1b cDNA subunits), L-type channels (α1C+α2δ+β1b cDNA subunits) and P/Q-type channels (α1A+α2δ+β1b cDNA subunits) were transiently expressed in HEK 293 cells. Briefly, cells were cultured in Dulbecco's modified eagle medium (DMEM) supplemented with 10% fetal bovine serum, 200 U/ml penicillin and 0.2 mg/ml streptomycin at 37° C. with 5% CO2. At 85% confluency cells were split with 0.25% trypsin/1 mM EDTA and plated at 10% confluency on glass coverslips. At 12 hours the medium was replaced and the cells transiently transfected using a standard calcium phosphate protocol and the appropriate calcium channel cDNA's. Fresh DMEM was supplied and the cells transferred to 28° C./5% CO2. Cells were incubated for 1 to 2 days prior to whole cell recording.
Whole cell patch clamp experiments were performed using an Axopatch 200B amplifier (Axon Instruments, Burlingame, Calif.) linked to a personal computer equipped with pCLAMP software. The external and internal recording solutions contained, respectively, 5 mM BaCl2, 10 mM MgCl2, 10 mM HEPES, 40 mM TEACl, 10 mM glucose, 87.5 mM CsCl (pH 7.2) and 108 mM CsMS, 4 mM MgCl2, 9 mM EGTA, 9 mM HEPES (pH 7.2). Currents were typically elicited from a holding potential of −80 mV to +10 mV using Clampex software (Axon Instruments). Typically, currents were first elicited with low frequency stimulation (0.067 Hz) and allowed to stabilize prior to application of the compounds. The compounds were then applied during the low frequency pulse trains for two to three minutes to assess tonic block, and subsequently the pulse frequency was increased to 0.2 Hz to assess frequency dependent block. Data were analyzed using Clampfit (Axon Instruments) and SigmaPlot 4.0 (Jandel Scientific).

[1] = −50 mV, read-out: IC50 @ −50 mV
[2] = −80 mV, read-out: IC50 @ −80 mV

T1 sequence (Q02294 whole entry): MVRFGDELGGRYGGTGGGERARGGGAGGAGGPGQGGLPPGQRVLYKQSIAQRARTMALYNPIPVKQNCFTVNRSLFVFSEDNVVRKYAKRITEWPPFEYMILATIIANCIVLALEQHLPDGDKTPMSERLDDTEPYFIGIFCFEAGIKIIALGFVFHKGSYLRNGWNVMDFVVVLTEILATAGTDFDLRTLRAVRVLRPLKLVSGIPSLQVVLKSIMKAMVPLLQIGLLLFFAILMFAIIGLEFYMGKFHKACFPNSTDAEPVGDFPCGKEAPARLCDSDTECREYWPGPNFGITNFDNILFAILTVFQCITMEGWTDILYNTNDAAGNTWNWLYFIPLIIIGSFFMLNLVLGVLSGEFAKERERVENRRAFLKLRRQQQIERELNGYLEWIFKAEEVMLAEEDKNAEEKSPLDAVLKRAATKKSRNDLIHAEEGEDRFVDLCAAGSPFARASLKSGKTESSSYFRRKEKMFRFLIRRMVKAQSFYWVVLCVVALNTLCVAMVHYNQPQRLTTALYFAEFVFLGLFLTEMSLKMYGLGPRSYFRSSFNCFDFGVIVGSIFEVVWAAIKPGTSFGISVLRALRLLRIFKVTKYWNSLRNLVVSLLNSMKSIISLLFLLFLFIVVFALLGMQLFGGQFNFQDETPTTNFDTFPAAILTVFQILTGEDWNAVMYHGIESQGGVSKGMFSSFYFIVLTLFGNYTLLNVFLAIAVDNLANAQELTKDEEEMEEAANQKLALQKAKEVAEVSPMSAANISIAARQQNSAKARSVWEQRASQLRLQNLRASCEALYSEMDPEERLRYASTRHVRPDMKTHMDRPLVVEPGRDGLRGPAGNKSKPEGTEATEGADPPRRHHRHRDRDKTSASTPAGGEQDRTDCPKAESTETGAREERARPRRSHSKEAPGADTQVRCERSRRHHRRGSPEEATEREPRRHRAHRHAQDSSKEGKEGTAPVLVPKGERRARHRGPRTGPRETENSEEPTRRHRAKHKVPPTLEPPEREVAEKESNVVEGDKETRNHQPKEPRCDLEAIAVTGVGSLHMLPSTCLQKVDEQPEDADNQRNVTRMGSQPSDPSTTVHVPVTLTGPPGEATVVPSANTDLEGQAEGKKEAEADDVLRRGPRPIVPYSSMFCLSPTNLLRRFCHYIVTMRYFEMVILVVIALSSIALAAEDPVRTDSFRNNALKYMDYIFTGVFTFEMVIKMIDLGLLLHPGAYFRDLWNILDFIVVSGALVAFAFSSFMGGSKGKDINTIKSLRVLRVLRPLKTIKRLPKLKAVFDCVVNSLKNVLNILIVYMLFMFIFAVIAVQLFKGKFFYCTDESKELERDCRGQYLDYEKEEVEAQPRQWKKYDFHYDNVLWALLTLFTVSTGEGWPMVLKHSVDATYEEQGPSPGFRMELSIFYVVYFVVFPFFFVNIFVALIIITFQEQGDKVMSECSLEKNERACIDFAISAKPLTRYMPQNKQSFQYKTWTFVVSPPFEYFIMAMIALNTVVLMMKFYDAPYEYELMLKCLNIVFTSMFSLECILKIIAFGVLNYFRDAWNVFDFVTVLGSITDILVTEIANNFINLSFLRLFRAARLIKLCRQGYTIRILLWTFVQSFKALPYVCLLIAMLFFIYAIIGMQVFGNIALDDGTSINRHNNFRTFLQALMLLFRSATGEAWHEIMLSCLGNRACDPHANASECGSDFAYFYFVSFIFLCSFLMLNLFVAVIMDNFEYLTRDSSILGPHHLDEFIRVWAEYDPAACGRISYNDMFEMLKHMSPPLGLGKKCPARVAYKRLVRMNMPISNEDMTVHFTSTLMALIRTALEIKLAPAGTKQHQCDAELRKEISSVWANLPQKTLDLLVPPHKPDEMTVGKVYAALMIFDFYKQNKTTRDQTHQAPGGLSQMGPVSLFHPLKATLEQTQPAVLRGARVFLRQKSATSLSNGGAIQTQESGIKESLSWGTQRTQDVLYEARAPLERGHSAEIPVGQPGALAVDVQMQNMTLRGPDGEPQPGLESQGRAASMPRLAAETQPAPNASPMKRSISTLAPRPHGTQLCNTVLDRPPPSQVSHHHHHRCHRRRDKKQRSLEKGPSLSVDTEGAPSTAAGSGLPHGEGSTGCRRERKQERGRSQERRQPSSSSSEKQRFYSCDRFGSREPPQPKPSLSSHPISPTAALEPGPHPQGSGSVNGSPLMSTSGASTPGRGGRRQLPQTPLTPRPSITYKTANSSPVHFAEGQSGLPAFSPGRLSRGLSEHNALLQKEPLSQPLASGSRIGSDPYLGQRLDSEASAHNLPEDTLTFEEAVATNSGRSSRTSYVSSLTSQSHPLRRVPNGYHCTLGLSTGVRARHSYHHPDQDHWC
T1 sequence (P54290 25-944 partner limits assumed): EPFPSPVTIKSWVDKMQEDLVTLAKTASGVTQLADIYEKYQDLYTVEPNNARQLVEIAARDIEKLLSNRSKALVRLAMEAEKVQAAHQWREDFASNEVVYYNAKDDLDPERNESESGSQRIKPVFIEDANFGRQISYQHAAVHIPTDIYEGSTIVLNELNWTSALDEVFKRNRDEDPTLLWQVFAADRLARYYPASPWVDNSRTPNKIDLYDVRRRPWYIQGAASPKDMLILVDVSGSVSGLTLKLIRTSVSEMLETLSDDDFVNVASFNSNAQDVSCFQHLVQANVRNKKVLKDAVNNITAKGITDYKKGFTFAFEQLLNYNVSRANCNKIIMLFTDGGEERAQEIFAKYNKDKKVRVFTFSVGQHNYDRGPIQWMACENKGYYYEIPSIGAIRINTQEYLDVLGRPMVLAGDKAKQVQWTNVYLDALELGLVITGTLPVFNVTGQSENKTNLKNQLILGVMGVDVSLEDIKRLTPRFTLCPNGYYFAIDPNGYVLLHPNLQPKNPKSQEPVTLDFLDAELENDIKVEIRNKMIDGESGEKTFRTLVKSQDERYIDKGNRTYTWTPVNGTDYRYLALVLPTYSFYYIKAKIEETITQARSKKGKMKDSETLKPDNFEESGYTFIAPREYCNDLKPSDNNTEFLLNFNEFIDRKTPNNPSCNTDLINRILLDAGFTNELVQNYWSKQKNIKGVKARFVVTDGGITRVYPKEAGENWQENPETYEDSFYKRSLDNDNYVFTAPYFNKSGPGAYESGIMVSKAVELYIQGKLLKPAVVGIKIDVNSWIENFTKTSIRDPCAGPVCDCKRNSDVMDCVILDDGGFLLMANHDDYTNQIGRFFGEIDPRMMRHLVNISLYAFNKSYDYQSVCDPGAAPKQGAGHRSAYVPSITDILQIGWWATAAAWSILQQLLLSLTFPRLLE
T1 sequence (P54290 945-1091 partner limits assumed): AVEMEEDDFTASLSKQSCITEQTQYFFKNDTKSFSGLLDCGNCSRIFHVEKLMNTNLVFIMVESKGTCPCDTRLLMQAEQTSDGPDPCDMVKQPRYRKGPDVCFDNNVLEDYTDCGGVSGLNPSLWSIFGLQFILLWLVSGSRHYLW
T1 sequence (P54283 whole entry partner): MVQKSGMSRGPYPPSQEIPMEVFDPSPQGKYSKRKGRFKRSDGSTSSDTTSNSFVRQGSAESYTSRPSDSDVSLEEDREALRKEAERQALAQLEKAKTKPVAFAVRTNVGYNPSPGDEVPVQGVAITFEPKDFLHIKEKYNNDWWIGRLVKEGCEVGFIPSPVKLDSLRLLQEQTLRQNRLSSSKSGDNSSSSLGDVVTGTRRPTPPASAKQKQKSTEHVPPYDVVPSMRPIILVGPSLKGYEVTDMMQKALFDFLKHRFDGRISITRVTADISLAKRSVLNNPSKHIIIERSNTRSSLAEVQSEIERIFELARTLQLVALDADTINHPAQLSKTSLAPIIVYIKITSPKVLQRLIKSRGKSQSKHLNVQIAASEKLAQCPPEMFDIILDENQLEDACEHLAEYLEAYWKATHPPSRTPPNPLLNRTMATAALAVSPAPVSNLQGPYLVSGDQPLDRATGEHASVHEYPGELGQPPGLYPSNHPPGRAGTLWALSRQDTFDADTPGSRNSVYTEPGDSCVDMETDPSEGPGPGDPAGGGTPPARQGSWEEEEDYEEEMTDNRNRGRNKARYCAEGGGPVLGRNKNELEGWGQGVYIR

An IC50 [1] of 400 nM and an IC50 [2] of 770 nM were found for `O=C(CN1CCN(C(c2ccccc2)c2ccccc2)CC1)Nc1nc2ccc(F)cc2s1` [Compound 1, 2-(4-benzhydrylpiperazin-1-yl)-N-(6-fluorobenzo[d]thiazol-2-yl)acetamide] in this work.

An IC50 [1] of 490 nM and an IC50 [2] of 920 nM were found for `O=C(CN1CCN(C(c2ccc(F)cc2)c2ccc(F)cc2)CC1)Nc1nc2ccc(F)cc2s1` [Compound 2, 2-(4-(bis(4-fluorophenyl)methyl)piperazin-1-yl)-N-(6-fluorobenzo[d]thiazol-2-yl)acetamide] in this work.

An IC50 [1] of 1200 nM and an IC50 [2] of 3400 nM were found for `O=C(CN1CCN(C(c2ccc(F)cc2)c2ccc(F)cc2)CC1)Nc1nccs1` [Compound 4, 2-(4-(bis(4-fluorophenyl)methyl)piperazin-1-yl)-N-(thiazol-2-yl)acetamide] in this work.

An IC50 [1] of 780 nM and an IC50 [2] of 1950 nM were found for `Cc1cnc(NC(=O)CN2CCN(C(c3ccccc3)c3ccccc3)CC2)s1` [Compound 5, 2-(4-benzhydrylpiperazin-1-yl)-N-(5-methylthiazol-2-yl)acetamide] in this work.

An IC50 [1] of 530 nM and an IC50 [2] of 1040 nM were found for `O=C(CN1CCN(C(c2ccc(F)cc2)c2ccc(F)cc2)CC1)Nc1ncc(Cl)s1` [Compound 8, 2-(4-(bis(4-fluorophenyl)methyl)piperazin-1-yl)-N-(5-chlorothiazol-2-yl)acetamide] in this work.

An IC50 [1] of 2500 nM and an IC50 [2] of 6400 nM were found for `Cc1ccc(-c2csc(NC(=O)CN3CCN(C(c4ccccc4)c4ccccc4)CC3)n2)cc1` [Compound 9, 2-(4-benzhydrylpiperazin-1-yl)-N-(4-p-tolylthiazol-2-yl)acetamide] in this work.

An IC50 [1] of 1910 nM and an IC50 [2] of 3540 nM were found for `Cc1ccc(-c2csc(NC(=O)CN3CCN(C(c4ccc(F)cc4)c4ccc(F)cc4)CC3)n2)cc1` [Compound 10, 2-(4-(bis(4-fluorophenyl)methyl)piperazin-1-yl)-N-(4-p-tolylthiazol-2-yl)acetamide] in this work.

An IC50 [1] of 1600 nM and an IC50 [2] of 3400 nM were found for `O=C(CN1CCN(C(c2ccccc2)c2ccccc2)CC1)Nc1nc2ccc(Cl)cc2s1` [Compound 11, 2-(4-benzhydrylpiperazin-1-yl)-N-(6-chlorobenzo[d]thiazol-2-yl)acetamide] in this work.

An IC50 [1] of 2560 nM and an IC50 [2] of 4580 nM were found for `O=C(CN1CCN(C(c2ccc(F)cc2)c2ccc(F)cc2)CC1)Nc1nc2ccc(Cl)cc2s1` [Compound 12, 2-(4-(bis(4-fluorophenyl)methyl)piperazin-1-yl)-N-(6-chlorobenzo[d]thiazol-2-yl)acetamide] in this work.

An IC50 [1] of 250 nM and an IC50 [2] of 290 nM were found for `O=C(CN1CCN(C(c2ccccc2)c2ccccc2)CC1)Nc1nc2ccccc2[nH]1` [Compound 14, 2-(4-benzhydrylpiperazin-1-yl)-N-(1H-benzo[d]imidazol-2-yl)acetamide] in this work.

An IC50 [1] of 600 nM and an IC50 [2] of 1210 nM were found for `O=C(CN1CCN(C(c2ccccc2)c2ccccc2)CC1)Nc1nc2ccccc2s1` [Compound 16, 2-(4-benzhydrylpiperazin-1-yl)-N-(benzo[d]thiazol-2-yl)acetamide] in this work.

An IC50 [1] of 530 nM and an IC50 [2] of 2530 nM were found for `O=C(CN1CCN(C(c2ccc(F)cc2)c2ccc(F)cc2)CC1)Nc1nc2ccccc2s1` [Compound 17, N-(benzo[d]thiazol-2-yl)-2-(4-(bis(4-fluorophenyl)methyl)piperazin-1-yl)acetamide] in this work.

An IC50 [1] of 1160 nM and an IC50 [2] of 2900 nM were found for `O=C(CN1CCN(C(c2ccccc2)c2ccccc2)CC1)Nc1nc2ccc(OC(F)(F)F)cc2s1` [Compound 18, 2-(4-benzhydrylpiperazin-1-yl)-N-(6-trifluoromethoxybenzo[d]thiazol-2-yl)acetamide] in this work.

An IC50 [1] of 1540 nM and an IC50 [2] of 3160 nM were found for `COc1ccc2nc(NC(=O)CN3CCN(C(c4ccccc4)c4ccccc4)CC3)sc2c1` [Compound 19, 2-(4-benzhydrylpiperazin-1-yl)-N-(6-methoxybenzo[d]thiazol-2-yl)acetamide] in this work.

An IC50 [1] of 1640 nM and an IC50 [2] of 3130 nM were found for `CS(=O)(=O)c1ccc2nc(NC(=O)CN3CCN(C(c4ccccc4)c4ccccc4)CC3)sc2c1` [Compound 20, 2-(4-benzhydrylpiperazin-1-yl)-N-(6-mesylbenzo[d]thiazol-2-yl)acetamide] in this work.
